Measurements from US10370405B2, “C-3 novel triterpenone with C-28 amide derivatives as HIV inhibitors” (HETERO LABS LIMITED, priority 2016, dated 2019).
Read-outs that look alike come from different tables or passages of the source.

Legend:
[1] = Single dose oral pharmacokinetic study; format: in vivo; details: mouse, plasma; Mice oral PK @30 mg/kg
Method: The test item was administered through oral route to animals (rat/mice) at 30 mg/kg dose in a suitable vehicle (10% Solutol+20% PEG) at 10 ml/kg dose volume. Blood samples (˜50 μL at each time point) were collected from retro-orbital plexus using K3 EDTA as anticoagulant in eppendorf tubes at defined time intervals 30 minutes, 1 hour, 2 hour, 4 hour, 8 hour, 24 hour & 48 hour under light ether anaesthesia. The samples were centrifuged at 3500×g to separate plasma and stored at −80° C. until analysis. Plasma […] for Mice were processed as per described in sample preparation.
Standard solutions of the test compound 1 mg/mL solutions were prepared in DMSO and further dilutions were made in methanol. The calibration curve samples for LCMSMS analysis were prepared by spiking 25 μl of Mice plasma with 2.5 μl and of the appropriate working standard solution to obtain final concentrations 0.078, 0.156, 0.312, 0.625, 1.25, 2.5, 5, 10, 20 & 40 µg/ml. To the test compound plasma extraction was carried out using Acetonitrile precipitation. After reconstitution with solvent (50% Acetonitrile in Buffer) samples were analyzed by LCMSMS to get the concentrations to calculate PK Parameters.

HIV-1 strain 92HT599 = assay: Antiviral activity: p24 estimation in MT2 cells infected with HIV-1; format: cell-based; details: for IC50: Human immunodeficiency virus 1, MT2; for inhibition at 0.01 µM / inhibition at 0.1 µM / inhibition at 1 µM: Human immunodeficiency virus 1, MT2 cells, HIV-1 92HT599, p24, ~96 hours
Method: MT2 cells were infected with HIV-1 strain 92HT599 (10 TCID 50/30000 cells). The infected cells were plated at the concentration of ˜30 000 cells per well in 96 well plate. Test compound was added to the micro plate in defined format with the final concentration of DMSO (vehicle) is not more than 1%. Incubation was carried out in CO2 incubator for ˜96 hours for viral infection. At the end of incubation period an aliquot from each well was taken for p24 estimation. The quantitation of p24 is an index for antiviral activity of the compound. Percent inhibition was calculated with reference to control values (vehicle controls). P-24 estimation was carried out using Advance biosciences kit as per the procedure detailed by supplier.

[2] = 0% serum, read-out: Antiviral activity IC50 (nM) 0%
[3] = read-out: Antiviral activity IC50 (nM) 40% serum

Method for in vitro: On day 1 calculate the number of cells required for the assay and seed 3×10^4 cells in 200 μl per well. Weigh the compound and dissolve it in DMSO to get 10 mM stock which is further diluted to 3 mM and 1 mM. The drugs from these stocks were added to plate to get final concentration of 100 μM, 30 μM and 10 μM. […] Incubate for 4 days in 5% CO2 incubator at 37° C. On day 4, 100 μl of medium was removed from each well without disturbing the cells. Add 10 μl of MTT reagent and incubate for 4 hours at 5% CO2 incubator at 37° C. for formation of crystals. Add 200 μl of 0.1N acidic isopropanol to dissolve the crystals and read the plate at 590 nm.

Q: Which results are given for `CC(C)C1=C2[C@H]3CC[C@@H]4[C@@]5(C)CC[C@H](OC(=O)[C@H]6C[C@@H](C(=O)O)C6(C)C)C(C)(C)[C@@H]5CC[C@@]4(C)[C@]3(C)CC[C@@]2(C(=O)N2CCC[C@H]2c2ncc(-c3ccc(F)cc3)[nH]2)CC1=O` [Example 2, (1R,3S)-3-((((3aR,5aR,5bR,7aR,9S,11aR,11bR,13aS)-3a-((S)-2-(5-(4-fluorophenyl)-1H-imidazol-2-yl)pyrrolidine-1-carbonyl)-1-isopropyl-5a,5b,8,8,11a-pentamethyl-2-oxo-3,3a,4,5,5a,5b,6,7,7a,8,9,10,11,11a,11b,12,13,13a-octadecahydro-2H-cyclopenta[a]chrysen-9-yl)oxy)carbonyl)-2,2-dimethlcyclobutane-1-carboxylic acid]?
A: AUC(0-t) [1]: 148000 ng·h/mL; Cmax [1]: 11900 ng/mL; IC50 (HIV-1 strain 92HT599; [2]): 3.89 nM; IC50 (HIV-1 strain 92HT599; [3]): 51.2 nM; inhibition at 0.01 µM (HIV-1 strain 92HT599): 60%; inhibition at 0.1 µM (HIV-1 strain 92HT599): 100%; inhibition at 1 µM (HIV-1 strain 92HT599): 100%; viability at 4 days, 10 μM (in vitro): 100%; viability at 4 days, 30 μM (in vitro): 100%; viability at 4 days, 100 μM (in vitro): 90%

Q: With `CC(C)C1=C2[C@H]3CC[C@@H]4[C@@]5(C)CC[C@H](OC(=O)[C@H]6C[C@@H](C(=O)O)C6(C)C)C(C)(C)[C@@H]5CC[C@@]4(C)[C@]3(C)CC[C@@]2(C(=O)N2CCC[C@H]2c2ncc(-c3cccnc3)[nH]2)CC1=O` [Example 3, (1R,3S)-3-((((3aR,5aR,5bR,7aR,9S,11aR,11bR,13aS)-1-isopropyl-5a,5b,8,8,11a-pentamethyl-2-oxo-3a-((S)-2-(5-(pyridin-3-yl)-1H-imidazol-2-yl)pyrrolidine-1-carbonyl)-3,3a,4,5,5a,5b,6,7,7a,8,9,10,11,11a,11b,12,13,13a-octadecahydro-2H-cyclopenta[a]chrysen-9-yl)oxy)carbonyl)-2,2-dimethlcyclobutane-1-carboxylic acid] as the compound, how does the AUC(0-t) [1] read?
A: 48600 ng·h/mL

Q: What about the Cmax [1] of the same compound?
A: 8530 ng/mL

Q: What about the IC50 (HIV-1 strain 92HT599; [2]) of the same compound?
A: 1.82 nM

Q: What about the IC50 (HIV-1 strain 92HT599; [3]) of the same compound?
A: 0.81 nM

Q: And the inhibition at 0.01 µM (HIV-1 strain 92HT599)?
A: 100%

Q: What about the inhibition at 0.1 µM (HIV-1 strain 92HT599) of the same compound?
A: 100%

Q: What about the inhibition at 1 µM (HIV-1 strain 92HT599) of the same compound?
A: 100%

Q: And the viability at 4 days, 10 μM (in vitro)?
A: 98%

Q: What about the viability at 4 days, 30 μM (in vitro) of the same compound?
A: 67%

Q: And the viability at 4 days, 100 μM (in vitro)?
A: 45%

Q: For `CC(C)C1=C2[C@H]3CC[C@@H]4[C@@]5(C)CC[C@H](OC(=O)[C@H]6C[C@@H](C(=O)O)C6(C)C)C(C)(C)[C@@H]5CC[C@@]4(C)[C@]3(C)CC[C@@]2(C(=O)NC(C)(C)c2ncc(-c3ccccc3)[nH]2)CC1=O` [Example 8, (1R,3S)-3-((((3aR,5aR,5bR,7aR,9S,11aR,11bR,13aS)-1-isopropyl-5a,5b,8,8,11a-pentamethyl-2-oxo-3a-((2-(5-phenyl-1H-imidazol-2-yl)propan-2-yl)carbamoyl)-3,3a,4,5,5a,5b,6,7,7a,8,9,10,11,11a,11b,12,13,13a-octadecahydro-2H-cyclopenta[a]chrysen-9-yl)oxy)carbonyl)-2,2-dimethylcyclobutane-1-carboxylic acid], which AUC(0-t) [1] is on record?
A: 265000 ng·h/mL

Q: And the Cmax [1]?
A: 15200 ng/mL

Q: And the IC50 (HIV-1 strain 92HT599; [2])?
A: 3.7 nM

Q: What about the IC50 (HIV-1 strain 92HT599; [3]) of the same compound?
A: 14.2 nM

Q: What about the inhibition at 0.01 µM (HIV-1 strain 92HT599) of the same compound?
A: 100%

Q: And the inhibition at 0.1 µM (HIV-1 strain 92HT599)?
A: 100%

Q: And the inhibition at 1 µM (HIV-1 strain 92HT599)?
A: 100%

Q: And the viability at 4 days, 10 μM (in vitro)?
A: 29%

Q: What about the viability at 4 days, 30 μM (in vitro) of the same compound?
A: 5%

Q: And the viability at 4 days, 100 μM (in vitro)?
A: 2%

Q: For `CC(C)C1=C2[C@H]3CC[C@@H]4[C@@]5(C)CC[C@H](OC(=O)[C@H]6C[C@@H](C(=O)O)C6(C)C)C(C)(C)[C@@H]5CC[C@@]4(C)[C@]3(C)CC[C@@]2(C(=O)NC(C)(C)CO)CC1=O` [Example 15, (1R,3S)-3-((((3aR,5aR,5bR,7aR,9S,11aR,11bR,13aS)-3a-((1-hydroxy-2-methylpropan-2-yl)carbamoyl)-1-isopropyl-5a,5b,8,8,11a-pentamethyl-2-oxo-3,3a,4,5,5a,5b,6,7,7a,8,9,10,11,11a,11b,12,13,13a-octadecahydro-2H-cyclopenta[a]chrysen-9-yl)oxy)carbonyl)-2,2-dimethylcyclobutane-1-carboxylic acid], which AUC(0-t) [1] is on record?
A: 88700 ng·h/mL

Q: And the Cmax [1]?
A: 9080 ng/mL

Q: What about the IC50 (HIV-1 strain 92HT599; [2]) of the same compound?
A: 2.84 nM

Q: What about the IC50 (HIV-1 strain 92HT599; [3]) of the same compound?
A: 415 nM

Q: What about the inhibition at 0.01 µM (HIV-1 strain 92HT599) of the same compound?
A: 97%

Q: What about the inhibition at 0.1 µM (HIV-1 strain 92HT599) of the same compound?
A: 100%

Q: What about the inhibition at 1 µM (HIV-1 strain 92HT599) of the same compound?
A: 100%

Q: And the viability at 4 days, 10 μM (in vitro)?
A: 70%

Q: And the viability at 4 days, 30 μM (in vitro)?
A: 22%

Q: What about the viability at 4 days, 100 μM (in vitro) of the same compound?
A: 6%

Q: What does the source list for `CC(C)C1=C2[C@H]3CC[C@@H]4[C@@]5(C)CC[C@H](OC(=O)[C@H]6C[C@@H](C(=O)O)C6(C)C)C(C)(C)[C@@H]5CC[C@@]4(C)[C@]3(C)CC[C@@]2(C(=O)N2CCC[C@H]2CN2CCC(F)(F)C2)CC1=O` [Example 6, (1R,3S)-3-((((3aR,5aR,5bR,7aR,9S,11aR,11bR,13aS)-3a-((S)-2-((3,3-difluoropyrrolidin-1-yl)methyl)pyrrolidine-1-carbonyl)-1-isopropyl-5a,5b,8,8,11a-pentamethyl-2-oxo-3,3a,4,5,5a,5b,6,7,7a,8,9,10,11,11a,11b,12,13,13a-octadecahydro-2H-cyclopenta[a]chrysen-9-yl)oxy)carbonyl)-2,2-dimethylcyclobutane-1-carboxylic acid]?
A: AUC(0-t) [1]: 76600 ng·h/mL; Cmax [1]: 11500 ng/mL; IC50 (HIV-1 strain 92HT599; [2]): 0.72 nM; IC50 (HIV-1 strain 92HT599; [3]): 203 nM; inhibition at 0.01 µM (HIV-1 strain 92HT599): 100%; inhibition at 0.1 µM (HIV-1 strain 92HT599): 100%; inhibition at 1 µM (HIV-1 strain 92HT599): 100%; viability at 4 days, 10 μM (in vitro): 57%; viability at 4 days, 30 μM (in vitro): 10%; viability at 4 days, 100 μM (in vitro): 6%

Q: With `CC(C)C1=C2[C@H]3CC[C@@H]4[C@@]5(C)CC[C@H](OC(=O)[C@H]6C[C@@H](C(=O)O)C6(C)C)C(C)(C)[C@@H]5CC[C@@]4(C)[C@]3(C)CC[C@@]2(C(=O)N2CCC[C@H]2CN2CCC(F)(F)CC2)CC1=O` [Example 7, (1R,3S)-3-((((3aR,5aR,5bR,7aR,9S,11aR,11bR,13aS)-3a-((S)-2-((4,4-difluoropiperidin-1-yl)methyl)pyrrolidine-1-carbonyl)-1-isopropyl-5a,5b,8,8,11a-pentamethyl-2-oxo-3,3a,4,5,5a,5b,6,7,7a,89,10,11,11a,11b,12,13,13a-octadecahydro-2H-cyclopenta[a]chrysen-9-yl)oxy)carbonyl)-2,2-dimethylcyclobutane-1-carboxylic acid] as the compound, how does the AUC(0-t) [1] read?
A: 28800 ng·h/mL

Q: And the Cmax [1]?
A: 7410 ng/mL

Q: What about the IC50 (HIV-1 strain 92HT599; [2]) of the same compound?
A: 24.7 nM

Q: What about the IC50 (HIV-1 strain 92HT599; [3]) of the same compound?
A: 313 nM

Q: And the inhibition at 0.01 µM (HIV-1 strain 92HT599)?
A: 100%

Q: What about the inhibition at 0.1 µM (HIV-1 strain 92HT599) of the same compound?
A: 100%

Q: And the inhibition at 1 µM (HIV-1 strain 92HT599)?
A: 100%

Q: And the viability at 4 days, 10 μM (in vitro)?
A: 65%

Q: What about the viability at 4 days, 30 μM (in vitro) of the same compound?
A: 9%

Q: And the viability at 4 days, 100 μM (in vitro)?
A: 8%

Q: What does the source list for `CC(C)C1=C2[C@H]3CC[C@@H]4[C@@]5(C)CC[C@H](OC(=O)[C@H]6C[C@@H](C(=O)O)C6(C)C)C(C)(C)[C@@H]5CC[C@@]4(C)[C@]3(C)CC[C@@]2(C(=O)NC(C)(C)CN2CCCC2)CC1=O` [Example 12, (1R,3S)-3-((((3aR,5aR,5bR,7aR,9S,11aR,11bR,13aS)-1-isopropyl-5a,5b,8,8,11a-pentamethyl-3a-((2-methyl-1-(pyrrolidin-1-yl)propan-2-yl)carbamoyl)-2-oxo-3,3a,4,5,5a,5b,6,7,7a,8,9,10,11,11a,11b,12,13,13a-octadecahydro-2H-cyclopenta[a]chrysen-9-yl)oxy)carbonyl)-2,2-dimethlcyclobutane-1-carboxylic acid]?
A: AUC(0-t) [1]: 19000 ng·h/mL; Cmax [1]: 5100 ng/mL; IC50 (HIV-1 strain 92HT599; [2]): 3.71 nM; IC50 (HIV-1 strain 92HT599; [3]): 164 nM; inhibition at 0.01 µM (HIV-1 strain 92HT599): 9%; inhibition at 0.1 µM (HIV-1 strain 92HT599): 95%; inhibition at 1 µM (HIV-1 strain 92HT599): 100%; viability at 4 days, 10 μM (in vitro): 100%; viability at 4 days, 30 μM (in vitro): 100%; viability at 4 days, 100 μM (in vitro): 96%
